SMILES strings stand for the structures. Several values for one entry are separate records, joined by “and”; a condition that tells them apart may be missing. Equal values may be shown once.

The first assay concerns the target T1, PPAR-γ (Homo sapiens, UniProt P37231).
T1 sequence (P37231 1-505): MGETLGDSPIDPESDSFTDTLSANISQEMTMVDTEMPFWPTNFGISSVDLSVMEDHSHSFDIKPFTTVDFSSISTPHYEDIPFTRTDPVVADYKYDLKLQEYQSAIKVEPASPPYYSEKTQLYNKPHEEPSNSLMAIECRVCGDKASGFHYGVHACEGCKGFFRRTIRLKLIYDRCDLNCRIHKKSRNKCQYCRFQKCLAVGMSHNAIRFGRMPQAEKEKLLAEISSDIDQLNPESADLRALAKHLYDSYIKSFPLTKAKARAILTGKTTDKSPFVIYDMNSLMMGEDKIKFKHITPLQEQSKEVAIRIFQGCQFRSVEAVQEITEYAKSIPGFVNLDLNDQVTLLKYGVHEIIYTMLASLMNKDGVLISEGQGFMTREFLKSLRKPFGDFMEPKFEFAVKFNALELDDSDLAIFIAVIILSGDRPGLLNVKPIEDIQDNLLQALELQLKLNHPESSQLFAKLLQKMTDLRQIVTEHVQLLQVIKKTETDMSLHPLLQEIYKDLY
Nature of the assay: Scintillation Proximity Assay (SPA), displacement of 3H labeled darglitazone. The format is binding. The conditions noted are these: 3H darglitazone displacement, read-out: PPAR-gamma Ki. On the technique in general: In a scintillation proximity assay essentially only radioactivity close to the scintillant gives light.
Source text: (§1) Scintillatian Proximity Assay (SPA) Assays
(§2) In the SPA assay, 3H labeled darglitazone (for PPAR-γ) or GW2331 (for PPAR-α) is bound to the PPAR protein captured on SPA polylysine beads and generates radioactive count signal that can be detected by TopCounts (Packard). The PPAR-bound 3H labeled ligand can be displaced by an unlabeled compound. The Ki of the compound can be then determined by the extent of displacement at various compound concentrations. Reagents: • SPA polylysine beads, which can be purchased from Amersham Bioscience. • H labeled Darglitazone for PPAR-γ. • H labeled GW2331 for PPAR-α. • PPAR proteins. • Buffer—PBS, 10% glycerol, 14 mM beta-mercaptoethanol.
As to `CC(C)(Oc1cccc(CNC(=O)OCCc2cccc(C(F)(F)F)c2)c1)C(=O)O` [Example B-03], the inhibition constant Ki – broadly, a dissociation constant, usually derived from enzyme kinetics or from competition with a known ligand – turned out to be 31000 nM.

With `CC(C)(Oc1cccc(COC(=O)NCCc2ccc(C(F)(F)F)cc2)c1)C(=O)O` [Example B-04], the inhibition constant (Ki) was found to be 1500 nM.

With `Cc1oc(-c2ccccc2)nc1CCOC(=O)NCc1cccc(OC(C)(C)C(=O)O)c1` [Example B-05], the Ki was 1330 nM and 2900 nM and 2000 nM.

In the case of `Cc1oc(-c2ccccc2)nc1COC(=O)NCc1cccc(OC(C)(C)C(=O)O)c1` [Example B-06], the inhibition constant Ki is 370 nM.

Consider `Cc1oc(-c2ccccc2)nc1CCCOC(=O)NCc1ccc(OC(C)(C)C(=O)O)cc1` [Example B-07], for which the Ki amounted to 650 nM.

Regarding `Cc1oc(-c2ccccc2)nc1COC(=O)NCc1ccc(OC(C)(C)C(=O)O)cc1` [Example B-08], the Ki amounted to 480 nM.

On to `Cc1oc(-c2ccccc2)nc1CCOC(=O)NCc1ccc(OC(C)(C)C(=O)O)cc1F` [Example B-09], for which the Ki was found to be 1900 nM.

For the compound `CC(C)(Oc1cccc(CNC(=O)OCc2cccc(Oc3ccccc3)c2)c1)C(=O)O` [Example B-10], the Ki was determined as 170 nM.

Regarding `CCC(Oc1cccc(CNC(=O)OCc2ccc(OCc3ccccc3)cn2)c1)C(=O)O` (stereo not drawn) [Example B-11], the inhibition constant Ki turned out to be 7900 nM.

In the case of `CCC(Oc1cccc(CNC(=O)OCc2nc(-c3ccccc3)oc2C)c1)C(=O)O` (stereo not drawn) [Example B-14], the Ki worked out at 2300 nM.

Turning to `Cc1oc(-c2ccccc2)nc1CCCOC(=O)NCc1cccc(OC2(C(=O)O)CCC2)c1` [Example B-16], the inhibition constant (Ki) is 1800 nM.

Regarding `Cc1oc(-c2ccccc2)nc1CCCOC(=O)NCc1cccc(OC(C)(C)C(=O)O)c1` [Example B-19], the Ki is 740 nM.

Take `Cc1oc(-c2ccccc2)nc1CCNC(=O)OCc1cccc(OC(C)(C)C(=O)O)c1` [Example B-21]: the Ki worked out at 990 nM.

In the case of `CCOC(Cc1cccc(CNC(=O)OCc2nc(-c3ccccc3)oc2C)c1)C(=O)O` (stereo not drawn) [Example B-22], the Ki amounted to 150 nM.

`CCOC(Cc1cccc(CNC(=O)OCCCc2nc(-c3ccccc3)oc2C)c1)C(=O)O` (stereo not drawn) [Example B-23]: the Ki was 3400 nM.

As to `CCOC(Cc1cccc(CNC(=O)OCCc2nc(-c3ccccc3)oc2C)c1)C(=O)O` (stereo not drawn) [Example B-24], the Ki stood at 1600 nM.

For `COc1ccc(-c2ccc(CCOc3ccc(CC4(C(=O)O)CCC4)cc3)cc2)cc1` [Example C-06, 1-{4-[2-(4′-methoxy-1,1′-biphenyl-4-yl)ethoxy]benzyl}cyclobutanecarboxylic acid], the Ki was 9500 nM.

In the case of `O=C(O)C1(Cc2ccc(OCCc3ccc(-c4ccc(F)cc4)cc3)cc2)CCC1` [Example C-07], the Ki was found to be 11000 nM.

In the case of `O=C(O)C1(Cc2ccc(OCCc3ccc(-c4cccc(OC(F)(F)F)c4)cc3)cc2)CCC1` [Example C-09], the Ki is 1400 nM.

For the compound `COc1ccc(-c2ccc(CCOc3ccc(CC4(C(=O)O)CCC4)cc3)cc2)cn1` [Example C-10], the inhibition constant (Ki) was 2100 nM.

Turning to `CS(=O)(=O)c1ccc(-c2ccc(CCOc3ccc(CC4(C(=O)O)CCC4)cc3)cc2)cc1` [Example C-11], the inhibition constant (Ki) stood at 2000 nM.

Regarding `O=C(O)C1(Cc2ccc(OCCc3ccc(-c4ccc5c(c4)OCC5)cc3)cc2)CCC1` [Example C-12], the Ki turned out to be 1600 nM.

For `Cc1oc(-c2ccccc2)nc1C/C=C/c1ccc(OC2(C(=O)O)CCC2)cc1` [Example C-14], the Ki amounted to 8000 nM.

Take `Cc1oc(-c2ccccc2)nc1CCCc1ccc(OC2(C(=O)O)CCC2)cc1` [Example C-15]: the Ki was 14000 nM.

For the next assay, the target named is T2, PPAR-α (Homo sapiens, UniProt Q07869).
T2 sequence (Q07869 1-468): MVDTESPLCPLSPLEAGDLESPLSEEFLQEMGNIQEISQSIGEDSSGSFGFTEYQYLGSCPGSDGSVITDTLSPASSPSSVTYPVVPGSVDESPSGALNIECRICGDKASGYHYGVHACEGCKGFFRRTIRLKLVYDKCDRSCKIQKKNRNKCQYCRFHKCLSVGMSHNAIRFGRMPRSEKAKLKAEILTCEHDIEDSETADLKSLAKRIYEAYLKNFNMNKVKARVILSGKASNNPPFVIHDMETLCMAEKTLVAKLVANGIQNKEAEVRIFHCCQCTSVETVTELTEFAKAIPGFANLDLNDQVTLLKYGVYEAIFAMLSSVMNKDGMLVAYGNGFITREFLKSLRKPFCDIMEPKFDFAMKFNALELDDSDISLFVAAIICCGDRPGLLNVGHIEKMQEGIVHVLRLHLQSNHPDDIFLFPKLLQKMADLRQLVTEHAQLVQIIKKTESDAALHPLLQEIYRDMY
Nature of the assay: Scintillation Proximity Assay (SPA), displacement of 3H labeled GW2331. The format is binding. To be noted: 3H GW2331 displacement, read-out: PPAR-alpha Ki.
Source text: as §1, §2
Take `CC(C)(Oc1cccc(CNC(=O)OCCc2cccc(C(F)(F)F)c2)c1)C(=O)O` [Example B-03]: the Ki was 9 µM.

Turning to `CC(C)(Oc1cccc(COC(=O)NCCc2ccc(C(F)(F)F)cc2)c1)C(=O)O` [Example B-04], the Ki worked out at 48 µM.

On to `Cc1oc(-c2ccccc2)nc1CCOC(=O)NCc1cccc(OC(C)(C)C(=O)O)c1` [Example B-05], for which the Ki was 2.04 µM and 3.2 µM and 3.6 µM.

`Cc1oc(-c2ccccc2)nc1COC(=O)NCc1cccc(OC(C)(C)C(=O)O)c1` [Example B-06]: the Ki worked out at 0.13 µM.

Take `Cc1oc(-c2ccccc2)nc1CCCOC(=O)NCc1ccc(OC(C)(C)C(=O)O)cc1` [Example B-07]: the inhibitory constant (Ki) is 12 µM.

As for `Cc1oc(-c2ccccc2)nc1COC(=O)NCc1ccc(OC(C)(C)C(=O)O)cc1` [Example B-08], the Ki turned out to be 3.1 µM.

Turning to `Cc1oc(-c2ccccc2)nc1CCOC(=O)NCc1ccc(OC(C)(C)C(=O)O)cc1F` [Example B-09], the Ki was determined as 2.2 µM.

With `CC(C)(Oc1cccc(CNC(=O)OCc2cccc(Oc3ccccc3)c2)c1)C(=O)O` [Example B-10], the inhibitory constant (Ki) turned out to be 0.19 µM.

`CCC(Oc1cccc(CNC(=O)OCc2ccc(OCc3ccccc3)cn2)c1)C(=O)O` (stereo not drawn) [Example B-11]: the Ki was determined as 0.96 µM.

With `CCC(Oc1cccc(CNC(=O)OCc2nc(-c3ccccc3)oc2C)c1)C(=O)O` (stereo not drawn) [Example B-14], the inhibitory constant (Ki) is 0.021 µM.

With `Cc1oc(-c2ccccc2)nc1CCCOC(=O)NCc1cccc(OC2(C(=O)O)CCC2)c1` [Example B-16], the inhibitory constant (Ki) turned out to be 0.084 µM.

Take `Cc1oc(-c2ccccc2)nc1CCCOC(=O)NCc1cccc(OC(C)(C)C(=O)O)c1` [Example B-19]: the Ki came out at 0.34 µM.

Regarding `Cc1oc(-c2ccccc2)nc1CCNC(=O)OCc1cccc(OC(C)(C)C(=O)O)c1` [Example B-21], the Ki is 4 µM.

Regarding `CCOC(Cc1cccc(CNC(=O)OCc2nc(-c3ccccc3)oc2C)c1)C(=O)O` (stereo not drawn) [Example B-22], the inhibitory constant (Ki) is 0.46 µM.

For the compound `CCOC(Cc1cccc(CNC(=O)OCCCc2nc(-c3ccccc3)oc2C)c1)C(=O)O` (stereo not drawn) [Example B-23], the Ki was found to be 2.7 µM.

For `CCOC(Cc1cccc(CNC(=O)OCCc2nc(-c3ccccc3)oc2C)c1)C(=O)O` (stereo not drawn) [Example B-24], the inhibitory constant (Ki) is 1 µM.

In the case of `COc1ccc(-c2ccc(CCOc3ccc(CC4(C(=O)O)CCC4)cc3)cc2)cc1` [Example C-06, 1-{4-[2-(4′-methoxy-1,1′-biphenyl-4-yl)ethoxy]benzyl}cyclobutanecarboxylic acid], the Ki turned out to be 41 µM.

On to `O=C(O)C1(Cc2ccc(OCCc3ccc(-c4ccc(F)cc4)cc3)cc2)CCC1` [Example C-07], for which the Ki turned out to be 22 µM.

For `O=C(O)C1(Cc2ccc(OCCc3ccc(-c4cccc(OC(F)(F)F)c4)cc3)cc2)CCC1` [Example C-09], the inhibition constant Ki stood at 4.6 µM.

Regarding `COc1ccc(-c2ccc(CCOc3ccc(CC4(C(=O)O)CCC4)cc3)cc2)cn1` [Example C-10], the Ki came out at 19 µM.

On to `CS(=O)(=O)c1ccc(-c2ccc(CCOc3ccc(CC4(C(=O)O)CCC4)cc3)cc2)cc1` [Example C-11], for which the Ki came to 25 µM.

With `O=C(O)C1(Cc2ccc(OCCc3ccc(-c4ccc5c(c4)OCC5)cc3)cc2)CCC1` [Example C-12], the Ki worked out at 9.4 µM.

For the compound `Cc1oc(-c2ccccc2)nc1C/C=C/c1ccc(OC2(C(=O)O)CCC2)cc1` [Example C-14], the Ki came out at 3.2 µM.

Take `Cc1oc(-c2ccccc2)nc1CCCc1ccc(OC2(C(=O)O)CCC2)cc1` [Example C-15]: the Ki was found to be 3.2 µM.

(Values after patent US20050234066A1, “Alpha substituted carboxylic acids” (Agouron Pharmaceuticals, Inc., priority 2004, published 2005).)
